Assay results from publication PMC5522460, “Crystal structure of a low molecular weight activator Blm-pep with yeast 20S proteasome – insights into the enzyme activation mechanism” (Scientific Reports, 2017).
Where no end group is shown, it is not given here.

Biological target: human 20S proteasome (Homo sapiens, UniProt P25786+P28066)
Experiment: Proteolytic stability assay with human 20S proteasome
Assay type: in vitro ADME
Details: 10 µM peptide, 0.025 mg/ml h20S, 25 mM Tris-HCl pH 8.0, 3 hours, 37 °C, RP-HPLC and MALDI TOF
Method: Blm-pep was incubated either with human or yeast 20S proteasome. Both assays were conducted in 25 mM Tris-HCl buffer (pH 8.0, measured at 20 °C), which for y20S contained 0.25 mM EDTA as an additive. The peptide and proteasome concentrations in 100 μl final solution were 10 µM and 0.025 mg/ml, respectively. Incubation was carried out for 3 hours at 37 °C. The reaction was stopped by addition of 5 μl of 10% TFA. Results were analyzed using RP-HPLC and MALDI TOF. Prior to MS analysis the samples were desalted using C18 spin columns (Pierce).

proteolytic stability with human 20S proteasome: digested
Sequence: KYFTGSKLWRSYYA [Blm-pep]
